Results on 3 compounds are retold here after patent publication US9682025B2, “Combination of active agents for oral administration for improving the quality of nails” (NUTRICOS TECHNOLOGIES, priority 2013, dated 2017).

For the assay, the system named is metalloprotease 9 (MMP-9). Nature of the assay: Basal synthesis/release of MMP-9 by normal human epidermal keratinocytes (ELISA of culture supernatants). Format: cell-based. Conditions: NHEK; for % of basal synthesis/release of MMP-9 by keratinocytes: 24 hours incubation; for effect on the basal level of synthesis and/or release of MMP-9 (in words): doses of Table I. How it is done:
This test was performed on cells cultured at 37° C., 5% CO2. The culture medium is Keratinocyte-SFM supplemented with epidermal growth factor (EGF) at 0.25 ng/ml, pituitary extract (PE) at 25 μg/ml and gentamicin at 25 μg/ml. […] At the end of this incubation, the culture supernatants were collected and stored so as to assay the amounts of MMP-9 secreted using the ELISA R&D Systems assay kit of reference DY911. The inter-group comparisons were performed using the unpaired bilateral Student's t-test.

Molecules are shown by their SMILES.

In the case of `N[C@@H](CS)C(=O)O` [Cysteine], the “% of basal synthesis/release of MMP-9 by keratinocytes” value (cysteine 1.2 μg/ml) is −12%. On to `CCCCCCCCCCC/C=C\CCCCC(=O)O` [Petroselinic acid, C18 delta-6-cis-octadecenoic acid], for which the “effect on the basal level of synthesis and/or release of MMP-9 (in words)” value is given as “no inhibitory activity”. Further, the “% of basal synthesis/release of MMP-9 by keratinocytes” value (petroselinic acid 0.1 μM) is −12%. As to `NCCS(=O)(=O)O` [Taurine], the “effect on the basal level of synthesis and/or release of MMP-9 (in words)” value is “reverse and moderate tendency”. The “% of basal synthesis/release of MMP-9 by keratinocytes” value (taurine 1.2 μg/ml) was “+11%”.
